# Measurements as given in patent US9475773B2, “NK3 receptor antagonist compound (NK3RA) for use in a method for the treatment of polycystic ovary syndrome (PCOS)” (ASTRAZENECA AB, priority 2013, dated 2016).
# Read-outs that look alike come from different tables or passages of the source.
# Tests used:
# female rats = assay: Rat female fertility and embryofetal development study; assay type: in vivo
# Description: In female rats the No Adverse Effect Dose Level for fetal minor abnormalities and variants was 1000 mg/kg/day.
# [1] = Pharmacokinetics and metabolism in dogs; assay type: in vivo; conditions: dog
# Description: At low doses, the estimated Clp of The NK3RA was moderate in rat (8.3 ml/min/kg) and low in the dog (1.2 ml/min/kg). Bioavailability (F) was ˜100% in both species indicating extensive absorption in these species. The volume of distribution (Vz) was moderate (1.6 L·kg in rat and 0.81 L/kg in dog) and consistent with the physico-chemical properties of the compound. […] The NK3RA exposure decreased after multiple dosing in rats, indicating either changes in absorption or induction of The NK3RA metabolism, or both, after multiple dosing. […] T1/2 values ranged from 5.6 hours to 14.3 hours at the end of dosing for dogs dosed at 1000 mg/kg/day (2180 μmol/kg/day). There were no consistent sex differences observed in the exposure to NK3RA in these 2 species.
# Following oral administration of The NK3RA in the rat, a pharmacologically active ketone metabolite appeared rapidly in plasma but slowly reached maximum concentration levels in all animals. […] T1/2 values ranged from 8.51 hours to 13.8 hours on Day 27 and Day 28 for dogs dosed with 1000 mg/kg/day (2180 μmol/kg/day) of the NK3RA. There were no consistent sex differences observed in the exposure to the metabolite in these 2 species.
# guinea pig heart = assay: Monophasic action potential of the guinea pig heart; assay type: in vivo; conditions: IV doses up to 46 mg/kg (100 μmol/kg)
# NK3 receptor = target: T1, NK3 receptor (Homo sapiens, UniProt P29371); assay: In vitro target engagement; assay type: binding; conditions: n=12
# T1 sequence (P29371 1-465): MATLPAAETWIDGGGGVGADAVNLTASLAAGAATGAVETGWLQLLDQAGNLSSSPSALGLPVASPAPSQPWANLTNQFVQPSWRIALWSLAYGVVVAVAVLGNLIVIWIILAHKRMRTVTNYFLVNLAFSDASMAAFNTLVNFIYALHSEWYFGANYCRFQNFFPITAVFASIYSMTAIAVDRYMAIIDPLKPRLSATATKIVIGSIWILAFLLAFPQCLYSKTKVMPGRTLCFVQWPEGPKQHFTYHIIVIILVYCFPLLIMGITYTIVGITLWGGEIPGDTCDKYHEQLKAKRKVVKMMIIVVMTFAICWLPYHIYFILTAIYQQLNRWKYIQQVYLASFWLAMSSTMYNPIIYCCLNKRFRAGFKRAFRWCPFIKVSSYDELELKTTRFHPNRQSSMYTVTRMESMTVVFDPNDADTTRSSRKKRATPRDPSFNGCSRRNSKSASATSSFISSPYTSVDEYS
# [2] = system: LH, free and total testosterone; assay: Phase 2a randomised double blind placebo controlled study in women with PCOS (interim data); assay type: in vivo, human
# Description: The pharmacodynamics, safety and pharmacokinetics of a compound of the present invention, NK3RA, is being further evaluated in a randomized, double-blind, placebo-controlled of NK3RA when given in multiple doses to females with PCOS.
# In this type of clinical trial three doses of 20 mg once daily, 20 mg twice daily and 40 mg twice daily of test compound are being compared to placebo, and studied in parallel group design. […] Exploratory analyses will focus on changes from baseline of LH, DHEA, FSH, oestrogen, progesterone, prolactin, thyroid stimulating hormone, Insulin-like Growth Factor 1 [IGF-1] (as surrogate for GH) and HbA1c on days 7 and 28, as well as the impact of treatment on patient reported outcomes and HRQoL as measured by change from baseline at day 28.
# The study population includes women with PCOS aged 18-45. The study will enroll 14 PCOS subjects per dose cohort with a total of N=56 for the entire study (2 drop outs per group assumed to give 12 evaluable subjects per dose). Patients are being dosed in the study over a duration of 28 days.
# The effect of NK3RA on testosterone and LH is being assessed. […] LH pulse amplitude and frequency are mathematically modelled parameters from raw LH assay data.
# Hourly measurement of FSH and free and total testosterone was performed during these periods of intensive monitoring.
# Interim data have been obtained from a total of 20 women with Polycystic Ovary Syndrome (PCOS) who received treatment (NK3RA or placebo) in the ongoing phase 2a study. This study is a 28 day, randomised, double blind placebo controlled study with 4 treatment arms, NK3RA 20 mg once daily, 20 mg twice daily, 40 mg twice daily and placebo in women with PCOS.
# Tables 1 to 3 below summarise the number of patients with data supportive, consistent and not supportive by treatment group (placebo and NK3RA).
# In Table 1 the criteria used to determine what is supportive, consistent or not supportive are based on a qualitative evaluation of the changes in:
# (a) LH area under the curve (AUC) between 0 and 8 hours AUC(0-8)
# (b) LH pulsatility parameters derived through deconvolution (Veldhuis J D, Keenan D M, and Pincus S M. Motivations and methods for analyzing pulsatile hormone secretion. Endocrine Reviews. 2008, 29(7):823-864; and Liu P Y, Keenan D M, Kok P, Padmanabhan V, O'Byrne K T, and Veldhuis J D. Sensitivity and specificity of pulse detection using a new deconvolution method. Am J Physiol Endocrinol Metab. 2009; 297(2):538-44) • i) average mass per LH pulse in 8 hours • ii) total number of LH pulses in 8 hours.
# For LH, there is a relationship between the LH AUC(0-8) and LH pulsatility. In particular, reductions in LH AUC(0-8) that would be considered to be disease modifying in PCOS will manifest themselves in pulsatility parameters of average mass per LH pulse in 8 hours and/or total number of LH pulses in 8 hours. Mass per pulse (MPP) is defined the amount of LH released per reconstructed LH pulse. The LH AUC(0-8) can be more reliably measured compared to the pulsatility parameters and therefore why both AUC(0-8) and pulsatility are considered in interpreting the level of LH reduction.
# In Table 2 the criteria used to determine what is supportive, consistent or not supportive are based on a qualitative evaluation of the changes in average (on an individual patient basis) free testosterone.
# In Table 3 the criteria used to determine what is supportive, consistent or not supportive are based on a qualitative evaluation of the changes in average (on an individual patient basis) total testosterone.
# Expert judgement was necessary in the application of these criteria and therefore plots were evaluated independently by 3 AZ physicians. The most common result across the 3 physicians determined provided the overall evaluation for a single patient. These criteria were agreed between the 3 reviewers ahead of the plots being available for review. […]
# [3] = decrease vs baseline on both days 7 and 28
# [4] = decrease vs baseline on either days 7 and 28
# [5] = increase vs baseline on both days 7 and 28
compound,measurement,setting,value
"CC[C@H](NC(=O)c1c(NS(C)(=O)=O)c(-c2ccccc2)nc2ccccc12)c1ccccc1 [NK3RA, 3-(methanesulfonamido)-2-phenyl-N-[(1S)-1-phenylpropyl]quinoline-4-carboxamide]",No Adverse Effect Dose Level for fetal minor abnormalities and variants,female rats; female rats,1000 mg/kg/day
same,"estrus cycles, mating performance and fertility","female rats; rat, in vivo",Disturbed estrus cycles were seen with no adverse effects on mating performance or fertility
same,accumulation after 28-day repeat dosing regimen,[1],no accumulation or reduction
same,rate of absorption,[1]; oral administration,more rapidly absorbed
same,half-life,"[1]; plasma, oral, dogs dosed at 1000 mg/kg/day (2180 μmol/kg/day), read-out: T1/2 at the end of dosing",5.6 to 14.3 h
same,bioavailability,"[1]; plasma, oral, read-out: Bioavailability (F)",~100%
same,half-life,"[1]; plasma, read-out: elimination half-life (T½) (converted)",9.5 h
same,Vd,"[1]; plasma, read-out: volume of distribution (Vz)",0.81 L/kg
same,clearance,"[1]; plasma, low doses, estimated, read-out: Clp",1.2 mL/min/kg
same,effect on monophasic action potential,guinea pig heart,without effect
same,IC50,NK3 receptor,2.24 ± 0.57 nM
same,LH: No. of patients Supportive,"[2]; NK3RA arms pooled, LH AUC decreases on both days 7 and 28 AND MPP or number of pulses decrease",2
same,LH: No. of patients Consistent,"[2]; NK3RA arms pooled, LH AUC decreases on both days 7 and 28 OR MPP or number of pulses decrease",3
same,LH: No. of patients Non-supportive,"[2]; NK3RA arms pooled, LH AUC, MPP and number of pulses increase on day 7 or 28",3
same,Free testosterone: No. of patients Supportive,[2]; [3],2
same,Total Testosterone: No. of patients Supportive,[2]; [3],3
same,Free testosterone: No. of patients Consistent,[2]; [4],4
same,Total Testosterone: No. of patients Consistent,[2]; [4],3
same,Free testosterone: No. of patients Non-supportive,[2]; [5],3
same,Total Testosterone: No. of patients Non-supportive,[2]; [5],4
